Results: ChEMBL document CHEMBL1909046, “DrugMatrix in vitro pharmacology data”

Legend:
[1] = target: Prostaglandin G/H synthase 1 (Homo sapiens, UniProt P23219); test: biochemical; assay type: tissue-based, Platelet;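 further: inhibition of COX-1 enzyme activity, with arachidonic acid supplied as substrate; in other assays of this panel Not Active means under 50% inhibition at 10 µM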
D(1A) dopamine receptor = D(1A) dopamine receptor (Homo sapiens, UniProt P21728); test: DRUGMATRIX: Dopamine D1 radioligand binding (ligand: [3H] SCH-23390); assay type: cell membranes, CHO, Membrane; conditions: Not Active = under 50% inhibition at 10 µM
[2] = DRUGMATRIX: Imidazoline I2, Central radioligand binding (ligand: [3H] Idazoxan); assay type: cell membranes, Rattus norvegicus, Wistar, Cerebral cortex, Membrane; conditions: Not Active = under 50% inhibition at 10 µM
[3] = target: T1, Nitric oxide synthase, inducible (Mus musculus, UniProt P29477); set-up: species or system Escherichia coli;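 further: inhibition of iNOS enzyme activity measured with L-arginine as substrate; in other assays of this panel Not Active means under 50% inhibition at 10 µM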
T1 sequence (P29477 whole entry): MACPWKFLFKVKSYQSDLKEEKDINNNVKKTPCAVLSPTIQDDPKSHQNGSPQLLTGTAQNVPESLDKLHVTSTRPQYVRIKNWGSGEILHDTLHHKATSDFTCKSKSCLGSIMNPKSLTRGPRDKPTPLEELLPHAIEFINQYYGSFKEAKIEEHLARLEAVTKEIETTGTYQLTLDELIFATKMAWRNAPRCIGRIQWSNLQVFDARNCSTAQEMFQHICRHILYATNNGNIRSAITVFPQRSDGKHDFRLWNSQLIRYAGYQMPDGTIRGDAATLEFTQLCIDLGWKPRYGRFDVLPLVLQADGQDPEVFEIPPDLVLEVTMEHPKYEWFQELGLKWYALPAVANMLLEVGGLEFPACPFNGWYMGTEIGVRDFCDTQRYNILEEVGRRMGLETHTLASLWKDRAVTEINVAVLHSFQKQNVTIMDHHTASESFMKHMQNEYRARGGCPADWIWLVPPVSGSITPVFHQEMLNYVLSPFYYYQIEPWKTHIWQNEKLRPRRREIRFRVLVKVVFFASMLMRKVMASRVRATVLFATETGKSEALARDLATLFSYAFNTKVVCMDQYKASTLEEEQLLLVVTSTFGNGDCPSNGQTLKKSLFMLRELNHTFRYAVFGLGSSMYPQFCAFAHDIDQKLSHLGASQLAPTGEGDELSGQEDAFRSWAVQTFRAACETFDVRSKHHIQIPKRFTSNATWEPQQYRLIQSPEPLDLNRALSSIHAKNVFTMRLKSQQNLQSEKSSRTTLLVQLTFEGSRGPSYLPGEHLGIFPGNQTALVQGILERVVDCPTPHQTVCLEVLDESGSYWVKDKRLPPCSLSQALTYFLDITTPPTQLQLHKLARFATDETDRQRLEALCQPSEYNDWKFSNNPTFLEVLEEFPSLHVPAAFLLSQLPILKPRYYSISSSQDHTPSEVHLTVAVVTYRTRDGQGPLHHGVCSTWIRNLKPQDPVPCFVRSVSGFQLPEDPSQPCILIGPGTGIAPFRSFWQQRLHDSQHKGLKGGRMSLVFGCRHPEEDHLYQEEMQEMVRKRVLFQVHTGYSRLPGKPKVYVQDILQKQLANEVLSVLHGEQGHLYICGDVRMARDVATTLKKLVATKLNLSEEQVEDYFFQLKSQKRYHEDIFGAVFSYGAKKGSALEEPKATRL

[4] = DRUGMATRIX: Potassium Channel [KATP] radioligand binding (ligand: [3H] Glyburide); assay type: cell membranes, Membrane; conditions: hit-t15; Not Active = under 50% inhibition at 10 µM
[5] = target: Mitogen-activated protein kinase 3 (Homo sapiens, UniProt P27361); test: DRUGMATRIX: Protein Serine/Threonine Kinase, ERK1 enzyme inhibition (substrate: Myelin Basic Protein); set-up: species or system Escherichia coli; conditions: Not Active = under 50% inhibition at 10 µM
Mitogen-activated protein kinase 3, sequence (P27361 whole entry): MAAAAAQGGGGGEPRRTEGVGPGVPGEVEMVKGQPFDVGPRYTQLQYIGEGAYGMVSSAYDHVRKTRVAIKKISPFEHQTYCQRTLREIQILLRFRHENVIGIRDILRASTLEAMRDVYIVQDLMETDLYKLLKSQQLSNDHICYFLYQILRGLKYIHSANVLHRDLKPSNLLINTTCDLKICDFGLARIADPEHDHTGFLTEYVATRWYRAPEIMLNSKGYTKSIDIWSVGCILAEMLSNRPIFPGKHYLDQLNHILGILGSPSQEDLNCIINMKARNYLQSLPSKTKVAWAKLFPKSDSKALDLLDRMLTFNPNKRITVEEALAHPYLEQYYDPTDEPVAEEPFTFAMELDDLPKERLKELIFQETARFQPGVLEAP

D(1A) dopamine receptor, sequence (P21728 whole entry): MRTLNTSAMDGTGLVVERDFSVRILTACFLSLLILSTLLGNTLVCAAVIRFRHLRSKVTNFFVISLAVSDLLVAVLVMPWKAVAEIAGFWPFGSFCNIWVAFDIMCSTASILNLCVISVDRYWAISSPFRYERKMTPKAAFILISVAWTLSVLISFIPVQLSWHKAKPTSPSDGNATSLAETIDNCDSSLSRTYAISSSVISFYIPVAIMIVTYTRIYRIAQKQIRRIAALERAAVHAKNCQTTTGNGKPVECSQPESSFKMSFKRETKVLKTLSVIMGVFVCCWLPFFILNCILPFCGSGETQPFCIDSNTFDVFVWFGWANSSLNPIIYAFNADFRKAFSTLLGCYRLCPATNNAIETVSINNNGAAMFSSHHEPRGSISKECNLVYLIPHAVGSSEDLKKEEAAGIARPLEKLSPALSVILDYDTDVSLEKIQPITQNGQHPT
Prostaglandin G/H synthase 1, sequence (P23219 whole entry): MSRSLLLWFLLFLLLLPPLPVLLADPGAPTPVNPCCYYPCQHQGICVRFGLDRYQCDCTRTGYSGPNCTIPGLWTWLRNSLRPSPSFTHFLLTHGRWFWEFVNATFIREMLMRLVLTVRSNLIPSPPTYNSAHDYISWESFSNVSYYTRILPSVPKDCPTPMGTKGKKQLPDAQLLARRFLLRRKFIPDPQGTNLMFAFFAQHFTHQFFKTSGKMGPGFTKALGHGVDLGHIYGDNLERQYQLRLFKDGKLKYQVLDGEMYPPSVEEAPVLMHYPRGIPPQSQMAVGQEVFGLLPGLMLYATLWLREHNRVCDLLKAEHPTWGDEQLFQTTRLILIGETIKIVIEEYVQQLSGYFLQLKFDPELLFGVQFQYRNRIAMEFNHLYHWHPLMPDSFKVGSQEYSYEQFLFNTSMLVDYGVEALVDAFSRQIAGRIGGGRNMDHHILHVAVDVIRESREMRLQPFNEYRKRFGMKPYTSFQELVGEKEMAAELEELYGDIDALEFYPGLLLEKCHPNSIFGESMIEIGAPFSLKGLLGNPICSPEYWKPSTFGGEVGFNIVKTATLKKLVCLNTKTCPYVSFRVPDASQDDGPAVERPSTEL

Structure (SMILES)	IC50 ([1]; platelet)	IC50 (D(1A) dopamine receptor; cho)	IC50 [2]	Ki [2]	IC50 [3]	IC50 [4]	Ki [4]	IC50 [5]	IC50 ([2]; read-out: IC50)	Ki ([2]; read-out: Ki)	IC50 (D(1A) dopamine receptor; read-out: IC50)	Ki (D(1A) dopamine receptor; read-out: Ki)	IC50 ([1]; read-out: IC50)	IC50 ([5]; read-out: IC50)
CCC(=O)O[C@]1(C(=O)CCl)[C@@H](C)C[C@H]2[C@@H]3CCC4=CC(=O)C=C[C@]4(C)[C@@]3(F)[C@@H](O)C[C@@]21C [CLOBETASOL PROPIONATE]	Not Active	Not Active	Not Active	Not Active	Not Active	Not Active	Not Active	Not Active	–	–	–	–	–	–
O=C1CN=C(c2ccccc2Cl)c2cc([N+](=O)[O-])ccc2N1 [CLONAZEPAM]	Not Active	Not Active	Not Active	Not Active	Not Active	Not Active	Not Active	Not Active	–	–	–	–	–	–
Nc1ccn([C@@H]2O[C@H](CO)[C@@H](O)[C@@H]2O)c(=O)n1 [CYTARABINE]	Not Active	Not Active	Not Active	Not Active	Not Active	Not Active	Not Active	Not Active	–	–	–	–	–	–
C[C@@H]1C[C@H]2[C@@H]3CCC4=CC(=O)C=C[C@]4(C)[C@@]3(F)[C@@H](O)C[C@]2(C)[C@H]1C(=O)CO [DESOXIMETASONE]	Not Active	Not Active	Not Active	Not Active	Not Active	Not Active	Not Active	Not Active	–	–	–	–	–	–
C[C@@H]1C[C@H]2[C@@H]3CCC4=CC(=O)C=C[C@]4(C)[C@@]3(F)[C@@H](O)C[C@]2(C)[C@@]1(O)C(=O)CO [DEXAMETHASONE]	Not Active	Not Active	Not Active	Not Active	Not Active	Not Active	Not Active	Not Active	–	–	–	–	–	–
CN(C)CC[C@@H](c1ccc(Cl)cc1)c1ccccn1 [DEXCHLORPHENIRAMINE]	Not Active	Not Active	–	–	Not Active	Not Active	Not Active	Not Active	15.2 µM	10.1 µM	–	–	–	–
C[C@@H]1CC[C@@]2(OC1)O[C@H]1[C@@H](O)[C@H]3[C@@H]4CC[C@H]5C[C@@H](O[C@@H]6O[C@H](CO)[C@H](O[C@@H]7O[C@H](CO)C(O)[C@H](O[C@@H]8OC[C@@H](O)[C@H](O)[C@H]8O)[C@H]7O[C@@H]7O[C@H](CO)[C@H](O)[C@H](O[C@@H]8O[C@H](CO)[C@@H](O)[C@H](O)[C@H]8O)[C@H]7O)[C@H](O)[C@H]6O)[C@H](O)C[C@]5(C)[C@H]4CC[C@]3(C)[C@H]1[C@@H]2C (stereo not given in full) [DIGITONIN]	Not Active	Not Active	Not Active	Not Active	Not Active	Not Active	Not Active	Not Active	–	–	–	–	–	–
OC(CCCN1CCCCC1)(c1ccccc1)c1ccccc1 [DIPHENIDOL]	Not Active	Not Active	Not Active	Not Active	Not Active	Not Active	Not Active	Not Active	–	–	–	–	–	–
C[C@H]1O[C@@H](n2cc(F)c(=O)[nH]c2=O)[C@H](O)[C@@H]1O [DOXIFLURIDINE]	Not Active	Not Active	Not Active	Not Active	Not Active	Not Active	Not Active	Not Active	–	–	–	–	–	–
Cn1c(=O)c2c(ncn2CC(O)CO)n(C)c1=O (stereo not given) [DYPHYLLINE]	Not Active	Not Active	Not Active	Not Active	Not Active	Not Active	Not Active	Not Active	–	–	–	–	–	–
CC[C@H]1CN2CCc3cc(OC)c(OC)cc3[C@@H]2C[C@@H]1C[C@H]1NCCc2cc(OC)c(OC)cc21 [EMETINE]	Not Active	Not Active	Not Active	Not Active	Not Active	Not Active	Not Active	Not Active	–	–	–	–	–	–
C[C@@H](CO)NC(=O)[C@@H]1C=C2c3cccc4[nH]cc(c34)C[C@H]2N(C)C1 [ERGONOVINE]	Not Active	–	–	–	Not Active	Not Active	Not Active	Not Active	–	1.23 µM	5.9 µM	2.95 µM	–	–
COC(=O)CCc1ccc(OCC(O)CNC(C)C)cc1 (stereo not given) [ESMOLOL]	Not Active	Not Active	Not Active	Not Active	Not Active	Not Active	Not Active	Not Active	–	–	–	–	–	–
CCC1(C)CC(=O)NC1=O (stereo not given) [ETHOSUXIMIDE]	Not Active	Not Active	Not Active	Not Active	Not Active	Not Active	Not Active	Not Active	–	–	–	–	–	–
C#C[C@]1(OC(C)=O)CC[C@H]2[C@@H]3CCC4=C[C@@H](OC(C)=O)CC[C@@H]4[C@H]3CC[C@@]21C [ETHYNODIOL DIACETATE]	Not Active	Not Active	Not Active	Not Active	Not Active	Not Active	Not Active	Not Active	–	–	–	–	–	–
COc1cc([C@@H]2c3cc4c(cc3[C@@H](O[C@@H]3O[C@@H]5CO[C@@H](C)O[C@H]5[C@H](O)[C@H]3O)[C@H]3COC(=O)[C@H]23)OCO4)cc(OC)c1O [ETOPOSIDE]	Not Active	Not Active	Not Active	Not Active	Not Active	Not Active	Not Active	Not Active	–	–	–	–	–	–
C=CCc1ccc(O)c(OC)c1 [EUGENOL]	Not Active	Not Active	Not Active	Not Active	Not Active	Not Active	Not Active	Not Active	–	–	–	–	–	–
CC(C(=O)O)c1cccc(Oc2ccccc2)c1 (stereo not given) [FENOPROFEN]	–	Not Active	Not Active	Not Active	Not Active	Not Active	Not Active	Not Active	–	–	–	–	0.145 µM	–
CC(C)(C)NC(=O)[C@H]1CC[C@H]2[C@@H]3CC[C@H]4NC(=O)C=C[C@]4(C)[C@H]3CC[C@]12C [FINASTERIDE]	Not Active	Not Active	Not Active	Not Active	Not Active	Not Active	Not Active	Not Active	–	–	–	–	–	–
COc1ccc2c3c1O[C@H]1C[C@@H](O)C=C[C@@]31CCN(C)C2 [GALANTAMINE]	Not Active	Not Active	Not Active	Not Active	Not Active	Not Active	Not Active	Not Active	–	–	–	–	–	–
Nc1ccn([C@@H]2O[C@H](CO)[C@@H](O)C2(F)F)c(=O)n1 [GEMCITABINE]	Not Active	Not Active	Not Active	Not Active	Not Active	Not Active	Not Active	Not Active	–	–	–	–	–	–
CC(C)=CCC/C(C)=C/CO [GERANIOL]	Not Active	Not Active	Not Active	Not Active	Not Active	Not Active	Not Active	Not Active	–	–	–	–	–	–
N=C(N)NC(=O)Cc1c(Cl)cccc1Cl [GUANFACINE]	Not Active	Not Active	–	–	Not Active	Not Active	Not Active	Not Active	0.045 µM	0.03 µM	–	–	–	–
Oc1c(Cl)cc(Cl)c(Cl)c1Cc1c(O)c(Cl)cc(Cl)c1Cl [HEXACHLOROPHENE]	Not Active	Not Active	Not Active	Not Active	Not Active	Not Active	Not Active	–	–	–	–	–	–	2.48 µM
NNc1nncc2ccccc12 [HYDRALAZINE]	Not Active	Not Active	Not Active	Not Active	Not Active	Not Active	Not Active	Not Active	–	–	–	–	–	–
